Assay results published in PubChem BioAssay (NCI).
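Protocol summary: plate cells (96-well), add compound at 5 concentrations, incubate 48 h, interpolate endpoints linearly. Abbreviation: GI50, concentration required for 50% inhibition of growth. TGI is the concentration that stops growth completely.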

Assays:
Test in all cases: inhibition of tumour cell growth, NCI panel, 48 h
COLO 205 colon = tested on: COLO 205 colon
SN12C renal = tested on: SN12C renal
A549 NSCLC = tested on: A549 NSCLC
SR leukemia = tested on: SR leukemia
RXF 393 renal = tested on: RXF 393 renal
NCI/ADR-RES ovarian = tested on: NCI/ADR-RES ovarian
OVCAR-4 ovarian = tested on: OVCAR-4 ovarian
KM12 colon = tested on: KM12 colon
HL-60(TB) leukemia = tested on: HL-60(TB) leukemia
SF-295 CNS = tested on: SF-295 CNS

| Structure (SMILES) | GI50 (COLO 205 colon) [µM] | TGI (COLO 205 colon) [µM] | GI50 (SN12C renal) [µM] | TGI (SN12C renal) [µM] | GI50 (A549 NSCLC) [µM] | TGI (A549 NSCLC) [µM] | GI50 (SR leukemia) [µM] | TGI (SR leukemia) [µM] | GI50 (RXF 393 renal) [µM] | TGI (RXF 393 renal) [µM] | GI50 (NCI/ADR-RES ovarian) [µM] | TGI (NCI/ADR-RES ovarian) [µM] | GI50 (OVCAR-4 ovarian) [µM] | TGI (OVCAR-4 ovarian) [µM] | GI50 (KM12 colon) [µM] | TGI (KM12 colon) [µM] | GI50 (HL-60(TB) leukemia) [µM] | TGI (HL-60(TB) leukemia) [µM] | GI50 (SF-295 CNS) [µM] | TGI (SF-295 CNS) [µM] |
| --- | --- | --- | --- | --- | --- | --- | --- | --- | --- | --- | --- | --- | --- | --- | --- | --- | --- | --- | --- | --- |
| CN(C)CCCOc1ccccc1NC1=C(Cl)C(=O)C(Nc2ccccc2OCCCN(C)C)=C(Cl)C1=O | 0.194 | 0.399 | 0.165 | 0.319 | 1.51 | 2.94 | 0.837 | 5.47 | 1.17 | 2.43 | 3.29 | 12.7 | 0.136 | 0.265 | 0.762 | 2.2 | 0.244 | 0.656 | 1.53 | 2.9 |
| COc1cccc(C2CC(c3cc(OC)c(OC)c(OC)c3)=NN2)c1 (stereo not given) | 18.7 | 48.8 | 22.7 | > 100 | 21.7 | 87.2 | 3.09 | 14.1 | 8.75 | 34 | 4.55 | 27.4 | 23.5 | > 100 | 5.02 | 20.4 | 4.08 | 31.7 | 9.61 | 38.3 |
| CC/C(Cc1ccccc1)=C(\c1ccc(OCCN2CCCCCC2)cc1)c1ccc(OC(=O)NCc2ccccc2)cc1 | 1.01 | 1.99 | 1.83 | 6.71 | 2.48 | 8.64 | 0.821 | 2.2 | 1.31 | 3.35 | 3.9 | 12.3 | 1.61 | 6.03 | 1.61 | 5.49 | 1.18 | 3.44 | 6.5 | 13.2 |
| COC1=CC(c2ccc[nH]2)=N/C1=C\c1[nH]c(C)c(C(=O)OCc2ccccc2)c1C | 0.165 | 1.48 | 0.0849 | 1.88 | 0.0826 | 4.68 | 0.0405 | 0.885 | 0.116 | 1.41 | 0.0714 | 1.36 | 0.0756 | 5.71 | 0.0525 | 1.52 | 0.328 | 20.2 | 0.17 | 0.827 |
| OCCOc1ccc(-c2cc(-c3ccccn3)nc(-c3ccccn3)c2)cc1 |  | 6.29 |  | > 100 |  | > 39.5 |  | 11.7 |  | 0.85 |  | 2.4 |  | > 100 |  | > 100 |  | 0.494 |  | > 100 |
